Results taken from ChEMBL document CHEMBL5137080, “Discovery of Novel 7-Hydroxy-5-oxo-4,5-dihydrothieno[3,2-b]pyridine-6-carboxamide Derivatives with Potent and Selective Antifungal Activity against Cryptococcus Species” (J Med Chem, 2022).
The source made the active and inactive calls. The calls are words filed in the database; no cut-off is given here.

Legend:
Cryptococcus neoformans [1] = assay: Synergistic antifungal activity against Cryptococcus neoformans clinical isolate 445 assessed as fractional inhibitory concentration index incubated for 72 hrs in presence of Fluconazole by broth microdilution method; type: functional
Cryptococcus neoformans [2] = assay: Antifungal activity against Cryptococcus neoformans clinical isolate SH68 assessed as fungal growth inhibition incubated for 72 hrs in presence of Fluconazole by broth microdilution method; type: functional
[3] = tested on: Cryptococcus gattii species complex; assay: Antifungal activity against Cryptococcus gattii clinical isolate SCZ20031 assessed as fungal growth inhibition incubated for 72 hrs in presence of Fluconazole by broth microdilution method; type: functional
Candida parapsilosis [4] = assay: Antifungal activity against Candida parapsilosis ATCC22019 assessed as fungal growth inhibition incubated for 48 hrs in presence of Fluconazole by broth microdilution method; type: functional; conditions: Lodderomyces parapsilosis
[5] = Half life in Sprague-Dawley rat at 2 mg/kg,iv by LC-MS/MS analysis; type: ADME, organism-based; conditions: in vivo
Cryptococcus neoformans [6] = assay: Synergistic antifungal activity against Cryptococcus neoformans clinical isolate HN15 assessed as fractional inhibitory concentration index incubated for 72 hrs in presence of Fluconazole by broth microdilution method; type: functional
Nakaseomyces glabratus [7] = assay: Antifungal activity against Candida glabrata ATCC1182 assessed as fungal growth inhibition incubated for 48 hrs in presence of Fluconazole by broth microdilution method; type: functional
[8] = Selectivity index, ratio of IC50 for human Caco-2 to MIC for antifungal activity against Cryptococcus neoformans; type: toxicity; conditions: Caco-2 cells, read-out: Selectivity Index
Candida albicans = assay: Antifungal activity against Candida albicans SC5314 assessed as fungal growth inhibition incubated for 48 hrs in presence of Fluconazole by broth microdilution method; type: functional
Candida parapsilosis [9] = assay: Antifungal activity against Candida parapsilosis ATCC22019 assessed as fungal growth inhibition incubated for 48 hrs by broth microdilution method; type: functional; conditions: Lodderomyces parapsilosis
Candida parapsilosis [10] = assay: Synergistic antifungal activity against Candida parapsilosis ATCC22019 assessed as fractional inhibitory concentration index incubated for 48 hrs in presence of Fluconazole by broth microdilution method; type: functional
Cryptococcus neoformans [11] = assay: Antifungal activity against Cryptococcus neoformans clinical isolate HN20 assessed as fungal growth inhibition incubated for 72 hrs in presence of Fluconazole by broth microdilution method; type: functional
Cryptococcus neoformans [12] = assay: Antifungal activity against Cryptococcus neoformans H99 assessed as reduction on fungal growth at 8 ug/ml incubated for 48 hrs by plate reader assay; type: functional, organism-based; conditions: dose 8.0 µg/ml
[13] = Volume of distribution at steady state in Sprague-Dawley rat at 2 mg/kg,iv by LC-MS/MS analysis; type: ADME, organism-based; conditions: in vivo
Candida tropicalis [14] = assay: Antifungal activity against Candida tropicalis ATCC20026 assessed as fungal growth inhibition incubated for 48 hrs in presence of Fluconazole by broth microdilution method; type: functional
Cryptococcus neoformans [15] = assay: Antifungal activity against Cryptococcus neoformans clinical isolate HN2-40 assessed as fungal growth inhibition incubated for 72 hrs in presence of Fluconazole by broth microdilution method; type: functional
[16] = C0 in Sprague-Dawley rat at 2 mg/kg,iv by LC-MS/MS analysis; type: ADME, organism-based; conditions: in vivo
Cryptococcus neoformans [17] = assay: Synergistic antifungal activity against Cryptococcus neoformans clinical isolate HN20 assessed as fractional inhibitory concentration index incubated for 72 hrs in presence of Fluconazole by broth microdilution method; type: functional
Pichia kudriavzevii = assay: Synergistic antifungal activity against Candida krusei ATCC2340 assessed as fractional inhibitory concentration index incubated for 48 hrs in presence of Fluconazole by broth microdilution method; type: functional
Cryptococcus neoformans [18] = assay: Antifungal activity against Cryptococcus neoformans clinical isolate HN2 assessed as fungal growth inhibition incubated for 72 hrs in presence of Fluconazole by broth microdilution method; type: functional
[19] = target: Voltage-gated inwardly rectifying potassium channel KCNH2 (Homo sapiens, UniProt Q12809); assay: Inhibition of human […] potassium channel by automated patch clamp electrophysiology; type: toxicity
Cryptococcus neoformans [20] = assay: Synergistic antifungal activity against Cryptococcus neoformans clinical isolate HN2 assessed as fractional inhibitory concentration index incubated for 72 hrs in presence of Fluconazole by broth microdilution method; type: functional
Cryptococcus neoformans [21] = assay: Synergistic antifungal activity against Cryptococcus neoformans clinical isolate HN1 assessed as fractional inhibitory concentration index incubated for 72 hrs in presence of Fluconazole by broth microdilution method; type: functional
[22] = tested on: Cryptococcus deuterogattii; assay: Antifungal activity against Cryptococcus gattii WM178 assessed as reduction on fungal growth at 2 ug/ml incubated for 48 hrs by plate reader assay; type: functional, Cryptococcus gattii species complex; parameters: scale not given: the % may be the effect or the level left; conditions: dose 2 µg/ml
Cryptococcus neoformans [23] = assay: Antifungal activity against Cryptococcus neoformans clinical isolate HN15 assessed as fungal growth inhibition incubated for 72 hrs in presence of Fluconazole by broth microdilution method; type: functional
Candida tropicalis [24] = assay: Antifungal activity against Candida tropicalis ATCC20026 assessed as fungal growth inhibition incubated for 48 hrs in presence of P163-0892 by broth microdilution method; type: functional
[25] = tested on: Cryptococcus deuterogattii; assay: Synergistic antifungal activity against Cryptococcus gattii WM178 assessed as fractional inhibitory concentration index incubated for 72 hrs in presence of P163-0892 by broth microdilution method; type: functional, Cryptococcus gattii species complex
Cryptococcus neoformans [26] = assay: Antifungal activity against Cryptococcus neoformans H99 assessed as fungal growth inhibition incubated for 72 hrs in presence of P163-0892 by broth microdilution method; type: functional
Cryptococcus neoformans [27] = assay: Synergistic antifungal activity against Cryptococcus neoformans clinical isolate 444 assessed as fractional inhibitory concentration index incubated for 72 hrs in presence of P163-0892 by broth microdilution method; type: functional
Cryptococcus neoformans [28] = assay: Synergistic antifungal activity against Cryptococcus neoformans clinical isolate HN20 assessed as fractional inhibitory concentration index incubated for 72 hrs in presence of P163-0892 by broth microdilution method; type: functional
[29] = tested on: Cryptococcus gattii species complex; assay: Antifungal activity against Cryptococcus gattii clinical isolate SCZ20031 assessed as fungal growth inhibition incubated for 72 hrs in presence of P163-0892 by broth microdilution method; type: functional
Cryptococcus neoformans [30] = assay: Antifungal activity against Cryptococcus neoformans clinical isolate 444 assessed as fungal growth inhibition incubated for 72 hrs in presence of P163-0892 by broth microdilution method; type: functional
Candida parapsilosis [31] = assay: Synergistic antifungal activity against Candida parapsilosis ATCC22019 assessed as fractional inhibitory concentration index incubated for 48 hrs in presence of P163-0892 by broth microdilution method; type: functional
Cryptococcus neoformans [32] = assay: Synergistic antifungal activity against Cryptococcus neoformans clinical isolate SH68 assessed as fractional inhibitory concentration index incubated for 72 hrs in presence of P163-0892 by broth microdilution method; type: functional
Cryptococcus gattii [33] = assay: Antifungal activity against Cryptococcus gattii WM179 assessed as fungal growth inhibition incubated for 72 hrs in presence of P163-0892 by broth microdilution method; type: functional, Cryptococcus gattii species complex
Nakaseomyces glabratus [34] = assay: Synergistic antifungal activity against Candida glabrata ATCC1182 assessed as fractional inhibitory concentration index incubated for 48 hrs in presence of P163-0892 by broth microdilution method; type: functional
[35] = tested on: Cryptococcus gattii species complex; assay: Antifungal activity against Cryptococcus gattii E566 assessed as fungal growth inhibition incubated for 72 hrs in presence of P163-0892 by broth microdilution method; type: functional
Cryptococcus neoformans [36] = assay: Antifungal activity against Cryptococcus neoformans clinical isolate 56992 assessed as fungal growth inhibition incubated for 72 hrs in presence of P163-0892 by broth microdilution method; type: functional
Cryptococcus neoformans [37] = assay: Antifungal activity against Cryptococcus neoformans clinical isolate HN17 assessed as fungal growth inhibition incubated for 72 hrs in presence of P163-0892 by broth microdilution method; type: functional
Cryptococcus gattii [38] = assay: Synergistic antifungal activity against Cryptococcus gattii WM179 assessed as fractional inhibitory concentration index incubated for 72 hrs in presence of P163-0892 by broth microdilution method; type: functional, Cryptococcus gattii species complex

Sequence of Voltage-gated inwardly rectifying potassium channel KCNH2 (Q12809 whole entry): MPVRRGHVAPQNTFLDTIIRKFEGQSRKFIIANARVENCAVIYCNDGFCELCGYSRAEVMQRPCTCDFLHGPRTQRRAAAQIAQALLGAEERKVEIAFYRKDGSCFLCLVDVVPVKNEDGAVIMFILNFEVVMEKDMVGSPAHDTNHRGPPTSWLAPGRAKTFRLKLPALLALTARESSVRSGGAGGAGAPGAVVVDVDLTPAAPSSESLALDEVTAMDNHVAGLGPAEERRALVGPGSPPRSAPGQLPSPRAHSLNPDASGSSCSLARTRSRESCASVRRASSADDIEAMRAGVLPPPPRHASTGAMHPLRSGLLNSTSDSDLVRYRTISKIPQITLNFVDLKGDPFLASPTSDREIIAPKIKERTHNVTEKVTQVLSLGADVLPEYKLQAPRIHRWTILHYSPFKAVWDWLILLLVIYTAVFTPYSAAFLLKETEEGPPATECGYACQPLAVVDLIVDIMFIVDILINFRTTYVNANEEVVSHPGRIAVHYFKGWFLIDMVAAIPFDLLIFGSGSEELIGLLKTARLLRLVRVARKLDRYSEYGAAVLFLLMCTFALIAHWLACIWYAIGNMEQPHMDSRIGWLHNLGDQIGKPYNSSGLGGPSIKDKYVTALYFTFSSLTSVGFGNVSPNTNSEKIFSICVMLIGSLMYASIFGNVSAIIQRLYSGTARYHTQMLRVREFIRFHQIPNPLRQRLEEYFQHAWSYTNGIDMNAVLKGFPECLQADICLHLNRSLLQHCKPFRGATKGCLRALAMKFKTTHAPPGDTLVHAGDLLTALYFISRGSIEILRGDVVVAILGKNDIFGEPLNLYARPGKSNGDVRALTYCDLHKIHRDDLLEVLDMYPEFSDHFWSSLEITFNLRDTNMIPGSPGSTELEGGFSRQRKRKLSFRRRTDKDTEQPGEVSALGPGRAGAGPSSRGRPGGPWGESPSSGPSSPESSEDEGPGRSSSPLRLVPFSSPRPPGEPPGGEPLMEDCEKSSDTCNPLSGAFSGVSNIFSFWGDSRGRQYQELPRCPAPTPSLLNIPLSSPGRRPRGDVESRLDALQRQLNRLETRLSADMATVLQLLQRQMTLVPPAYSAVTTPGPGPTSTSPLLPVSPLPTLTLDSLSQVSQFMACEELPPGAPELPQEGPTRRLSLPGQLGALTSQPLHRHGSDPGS

CCCCNC(=O)c1c(O)c2sccc2n(Cc2ccccc2)c1=O
fractional inhibitory concentration index (FICI) (Cryptococcus neoformans [1]): 0.375 | MIC (Cryptococcus neoformans [2]): 0.0625 µg/mL | MIC [3]: 0.125 µg/mL | MIC (Candida parapsilosis [4]): 16 µg/mL | t1/2 [5]: 7.61 h | fractional inhibitory concentration index (FICI) (Cryptococcus neoformans [6]): 0.313 | MIC (Nakaseomyces glabratus [7]): 16 µg/mL | selectivity ratio [8]: > 256 | MIC (Candida albicans): 1 µg/mL | MIC (Candida parapsilosis [9]): > 64 µg/mL | fractional inhibitory concentration index (FICI) (Candida parapsilosis [10]): 0.625 | MIC (Cryptococcus neoformans [11]): 0.0625 µg/mL | Activity (Cryptococcus neoformans [12]): Active | Vdss [13]: 7.12 L/kg | MIC (Candida tropicalis [14]): 2 µg/mL | MIC (Cryptococcus neoformans [15]): 0.0313 µg/mL | C0 [16]: 2460 ng/mL | fractional inhibitory concentration index (FICI) (Cryptococcus neoformans [17]): 0.375 | fractional inhibitory concentration index (FICI) (Pichia kudriavzevii): 0.563 | MIC (Cryptococcus neoformans [18]): 0.0313 µg/mL | IC50 [19]: 23.4 µM | fractional inhibitory concentration index (FICI) (Cryptococcus neoformans [20]): 0.188 | fractional inhibitory concentration index (FICI) (Cryptococcus neoformans [21]): 0.125 | Activity [22]: 45.5% | MIC (Cryptococcus neoformans [23]): 0.0625 µg/mL

OC(Cn1cncn1)(Cn1cncn1)c1ccc(F)cc1F [FLUCONAZOLE]
MIC (Candida tropicalis [24]): 1 µg/mL | fractional inhibitory concentration index (FICI) [25]: 0.25 | MIC (Cryptococcus neoformans [26]): 2 µg/mL | fractional inhibitory concentration index (FICI) (Cryptococcus neoformans [27]): 0.156 | fractional inhibitory concentration index (FICI) (Cryptococcus neoformans [28]): 0.375 | MIC [29]: 1 µg/mL | MIC (Cryptococcus neoformans [30]): 0.5 µg/mL | fractional inhibitory concentration index (FICI) (Candida parapsilosis [31]): 0.625 | fractional inhibitory concentration index (FICI) (Cryptococcus neoformans [32]): 0.25 | MIC (Cryptococcus gattii [33]): 0.5 µg/mL | fractional inhibitory concentration index (FICI) (Nakaseomyces glabratus [34]): 0.625 | MIC [35]: 0.5 µg/mL | MIC (Cryptococcus neoformans [36]): 0.25 µg/mL | MIC (Cryptococcus neoformans [37]): 0.5 µg/mL | fractional inhibitory concentration index (FICI) (Cryptococcus gattii [38]): 0.25
